Laboratory results: PMC6887723, “Design and Synthesis of 4-(Heterocyclic Substituted Amino)-1H-Pyrazole-3-Carboxamide Derivatives and Their Potent Activity against Acute Myeloid Leukemia (AML)” (International Journal of Molecular Sciences, 2019)

Experiments:
Assay in all cases: Hot-Spot kinase profiling
Assay type in all cases: biochemical
PDGFRa = molecular target: T1, PDGFRa (Homo sapiens, UniProt P16234); conditions: read-out: % Enzyme Activity (Relative to DMSO Controls) PDGFRa
T1 construct: purchased Reaction Biology Corp. (Malvern PA, USA)
Method: (§1) Activities of kinases were determined using Hot-SpotSM kinase assay which was performed by Reaction Biology Corp. (Malvern PA, USA) as described previously.

SYK = molecular target: T2, SYK (Homo sapiens, UniProt P43405); conditions: read-out: % Enzyme Activity (Relative to DMSO Controls) SYK
T2 construct: purchased Reaction Biology Corp. (Malvern PA, USA)
Method: as §1

c-Kit = molecular target: T3, c-Kit (Homo sapiens, UniProt P10721); conditions: read-out: % Enzyme Activity (Relative to DMSO Controls) c-Kit
T3 construct: purchased Reaction Biology Corp. (HotSpot kinase assay)
Method: as §1

FLT3 (ITD)-NPOS = FLT3 (ITD)-NPOS (Homo sapiens, UniProt P36888, ITD)
Method: as §1

FLT3 = molecular target: T4, FLT3 (Homo sapiens, UniProt P36888)
T4 construct: purchased Reaction Biology Corp
T4 sequence (P36888 27-993): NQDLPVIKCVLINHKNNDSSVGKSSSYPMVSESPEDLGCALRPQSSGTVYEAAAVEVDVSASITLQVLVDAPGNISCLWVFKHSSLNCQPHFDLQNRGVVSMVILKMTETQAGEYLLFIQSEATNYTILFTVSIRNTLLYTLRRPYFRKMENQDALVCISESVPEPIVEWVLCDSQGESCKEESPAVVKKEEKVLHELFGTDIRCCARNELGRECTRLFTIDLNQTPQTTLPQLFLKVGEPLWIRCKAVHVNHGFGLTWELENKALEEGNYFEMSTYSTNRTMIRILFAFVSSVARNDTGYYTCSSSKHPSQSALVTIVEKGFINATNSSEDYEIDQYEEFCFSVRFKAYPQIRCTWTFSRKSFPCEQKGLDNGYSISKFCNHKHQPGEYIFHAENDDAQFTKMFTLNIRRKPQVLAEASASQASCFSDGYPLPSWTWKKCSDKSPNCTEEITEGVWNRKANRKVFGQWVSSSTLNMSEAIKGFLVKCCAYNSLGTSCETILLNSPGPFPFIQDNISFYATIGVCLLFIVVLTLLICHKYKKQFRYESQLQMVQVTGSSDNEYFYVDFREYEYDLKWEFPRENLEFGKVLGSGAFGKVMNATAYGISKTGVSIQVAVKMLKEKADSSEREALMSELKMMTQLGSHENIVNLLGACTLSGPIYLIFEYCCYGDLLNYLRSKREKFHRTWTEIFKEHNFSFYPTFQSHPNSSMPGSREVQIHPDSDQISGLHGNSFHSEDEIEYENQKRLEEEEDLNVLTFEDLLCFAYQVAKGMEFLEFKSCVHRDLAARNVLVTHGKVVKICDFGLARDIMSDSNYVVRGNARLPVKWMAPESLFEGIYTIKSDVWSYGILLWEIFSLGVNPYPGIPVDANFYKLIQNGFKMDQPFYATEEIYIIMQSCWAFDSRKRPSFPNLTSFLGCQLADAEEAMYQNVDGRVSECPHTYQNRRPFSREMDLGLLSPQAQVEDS
Method: as §1

FLT3 (R595_E596insEY) = molecular target: T5, FLT3 (R595_E596insEY) (Homo sapiens, UniProt P36888, INS595EY)
T5 construct: purchased Reaction Biology Corp
T5 sequence (P36888 with tags, fused parts or gaps INS595EY limits assumed): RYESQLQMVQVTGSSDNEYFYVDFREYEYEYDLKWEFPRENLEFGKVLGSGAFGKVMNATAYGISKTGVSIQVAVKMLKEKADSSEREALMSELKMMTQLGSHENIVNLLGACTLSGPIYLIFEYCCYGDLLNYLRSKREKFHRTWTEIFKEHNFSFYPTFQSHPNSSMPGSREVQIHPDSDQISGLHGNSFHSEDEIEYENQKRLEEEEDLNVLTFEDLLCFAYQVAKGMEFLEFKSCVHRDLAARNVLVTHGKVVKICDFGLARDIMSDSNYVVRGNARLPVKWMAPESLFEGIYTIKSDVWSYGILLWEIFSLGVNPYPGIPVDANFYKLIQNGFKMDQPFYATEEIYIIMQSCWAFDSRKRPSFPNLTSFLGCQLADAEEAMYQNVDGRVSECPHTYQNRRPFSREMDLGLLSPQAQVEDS
Method: as §1

FLT3 (F594_R595insR) = molecular target: T6, FLT3 (F594_R595insR) (Homo sapiens, UniProt P36888, INS594R)
T6 construct: purchased Reaction Biology Corp
T6 sequence (P36888 with tags, fused parts or gaps INS594R limits assumed): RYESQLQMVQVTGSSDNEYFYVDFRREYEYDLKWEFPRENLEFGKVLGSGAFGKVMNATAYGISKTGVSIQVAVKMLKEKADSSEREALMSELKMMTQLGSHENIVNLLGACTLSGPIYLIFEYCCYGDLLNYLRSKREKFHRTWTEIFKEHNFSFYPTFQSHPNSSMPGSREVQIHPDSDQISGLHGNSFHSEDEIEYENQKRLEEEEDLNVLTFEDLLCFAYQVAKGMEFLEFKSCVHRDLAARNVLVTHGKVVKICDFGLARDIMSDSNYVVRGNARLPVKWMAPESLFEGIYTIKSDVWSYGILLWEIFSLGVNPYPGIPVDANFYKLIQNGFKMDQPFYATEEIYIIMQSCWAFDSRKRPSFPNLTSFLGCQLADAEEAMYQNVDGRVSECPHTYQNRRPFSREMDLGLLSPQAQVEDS
Method: as §1

AKT1 = molecular target: T7, AKT1 (Homo sapiens, UniProt P31749); conditions: read-out: % Enzyme Activity (Relative to DMSO Controls) AKT1
T7 construct: purchased Reaction Biology Corp. (HotSpot kinase assay)
T7 sequence (P31749 whole entry): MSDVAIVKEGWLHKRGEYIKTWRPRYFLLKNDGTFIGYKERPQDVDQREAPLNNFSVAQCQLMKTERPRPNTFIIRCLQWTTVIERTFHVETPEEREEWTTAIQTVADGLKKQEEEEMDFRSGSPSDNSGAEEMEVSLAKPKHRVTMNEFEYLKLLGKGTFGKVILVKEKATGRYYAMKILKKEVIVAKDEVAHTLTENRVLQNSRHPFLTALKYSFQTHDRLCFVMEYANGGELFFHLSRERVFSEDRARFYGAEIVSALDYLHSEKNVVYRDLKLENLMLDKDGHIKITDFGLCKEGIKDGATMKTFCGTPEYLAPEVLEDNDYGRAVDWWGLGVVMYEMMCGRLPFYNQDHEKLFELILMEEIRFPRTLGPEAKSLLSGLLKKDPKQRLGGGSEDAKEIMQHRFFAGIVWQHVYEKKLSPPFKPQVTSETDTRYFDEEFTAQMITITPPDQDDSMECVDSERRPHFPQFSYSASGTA
Method: as §1

c-Src = molecular target: T8, c-Src (Homo sapiens, UniProt P12931); conditions: read-out: % Enzyme Activity (Relative to DMSO Controls) c-Src
T8 construct: purchased Reaction Biology Corp. (HotSpot kinase assay)
Method: as §1

FLT3 (F594_R595insREY) = molecular target: T9, FLT3 (F594_R595insREY) (Homo sapiens, UniProt P36888, INS594REY)
T9 construct: purchased Reaction Biology Corp
T9 sequence (P36888 with tags, fused parts or gaps INS594REY limits assumed): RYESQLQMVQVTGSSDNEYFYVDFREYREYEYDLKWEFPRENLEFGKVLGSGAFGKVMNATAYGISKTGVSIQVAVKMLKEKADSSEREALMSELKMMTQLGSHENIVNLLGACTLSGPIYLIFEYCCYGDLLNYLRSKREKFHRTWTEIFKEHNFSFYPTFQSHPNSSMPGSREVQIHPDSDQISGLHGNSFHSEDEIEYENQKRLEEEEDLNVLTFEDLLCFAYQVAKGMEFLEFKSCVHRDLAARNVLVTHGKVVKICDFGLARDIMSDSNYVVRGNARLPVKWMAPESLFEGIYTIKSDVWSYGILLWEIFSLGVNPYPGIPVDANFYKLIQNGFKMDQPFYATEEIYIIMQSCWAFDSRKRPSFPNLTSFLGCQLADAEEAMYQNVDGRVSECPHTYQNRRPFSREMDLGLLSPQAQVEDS
Method: as §1

FLT4/VEGFR3 = molecular target: T10, FLT4/VEGFR3 (Homo sapiens, UniProt P35916)
T10 construct: purchased Reaction Biology Corp
T10 sequence (P35916 25-1363): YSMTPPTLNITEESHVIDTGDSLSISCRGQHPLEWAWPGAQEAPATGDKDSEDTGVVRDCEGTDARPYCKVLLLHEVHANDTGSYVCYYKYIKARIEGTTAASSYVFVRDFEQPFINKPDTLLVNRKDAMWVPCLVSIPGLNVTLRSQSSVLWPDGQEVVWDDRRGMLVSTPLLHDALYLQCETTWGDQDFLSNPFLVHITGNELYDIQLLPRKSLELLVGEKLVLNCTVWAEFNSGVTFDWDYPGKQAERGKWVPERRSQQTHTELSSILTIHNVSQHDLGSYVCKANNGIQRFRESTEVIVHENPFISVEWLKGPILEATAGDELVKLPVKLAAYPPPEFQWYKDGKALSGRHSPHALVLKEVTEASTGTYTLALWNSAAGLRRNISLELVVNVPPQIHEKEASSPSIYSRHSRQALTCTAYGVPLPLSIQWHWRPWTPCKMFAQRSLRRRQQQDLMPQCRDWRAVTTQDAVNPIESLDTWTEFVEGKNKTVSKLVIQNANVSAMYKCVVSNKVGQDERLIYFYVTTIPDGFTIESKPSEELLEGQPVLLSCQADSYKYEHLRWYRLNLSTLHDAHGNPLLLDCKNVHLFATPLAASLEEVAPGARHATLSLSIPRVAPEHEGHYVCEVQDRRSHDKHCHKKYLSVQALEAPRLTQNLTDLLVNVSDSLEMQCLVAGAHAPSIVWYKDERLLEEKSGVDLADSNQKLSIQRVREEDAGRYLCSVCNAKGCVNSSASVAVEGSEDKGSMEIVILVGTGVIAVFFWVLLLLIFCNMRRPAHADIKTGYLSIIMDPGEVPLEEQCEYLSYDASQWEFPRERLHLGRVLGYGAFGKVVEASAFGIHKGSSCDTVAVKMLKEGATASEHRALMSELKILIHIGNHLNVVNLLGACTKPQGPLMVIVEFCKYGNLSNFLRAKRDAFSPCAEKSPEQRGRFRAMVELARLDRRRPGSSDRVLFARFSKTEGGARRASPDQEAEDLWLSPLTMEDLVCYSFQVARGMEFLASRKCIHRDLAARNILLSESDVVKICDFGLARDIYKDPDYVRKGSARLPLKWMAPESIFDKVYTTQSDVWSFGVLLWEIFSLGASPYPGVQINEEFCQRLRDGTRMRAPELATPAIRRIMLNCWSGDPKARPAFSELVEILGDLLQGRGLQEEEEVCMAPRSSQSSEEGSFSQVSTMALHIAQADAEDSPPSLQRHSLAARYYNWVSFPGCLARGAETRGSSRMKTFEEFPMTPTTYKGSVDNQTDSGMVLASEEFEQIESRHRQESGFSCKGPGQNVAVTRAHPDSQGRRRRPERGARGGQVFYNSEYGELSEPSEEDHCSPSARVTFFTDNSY
Method: as §1

c-MET = molecular target: T11, c-MET (Homo sapiens, UniProt P08581); conditions: read-out: % Enzyme Activity (Relative to DMSO Controls) c-MET
T11 construct: purchased Reaction Biology Corp. (HotSpot kinase assay)
Method: as §1

ALK1/ACVR1 = conditions: 0.15 μM
Method: as §1

FMS = molecular target: T12, FMS (Homo sapiens, UniProt P07333); conditions: read-out: % Enzyme Activity (Relative to DMSO Controls) FMS
T12 construct: purchased Reaction Biology Corp
Method: as §1

CDK5/p35 = molecular target: T13, CDK5/p35 (Homo sapiens, UniProt Q00535)
T13 construct: purchased Reaction Biology Corp
T13 sequence (Q00535 whole entry): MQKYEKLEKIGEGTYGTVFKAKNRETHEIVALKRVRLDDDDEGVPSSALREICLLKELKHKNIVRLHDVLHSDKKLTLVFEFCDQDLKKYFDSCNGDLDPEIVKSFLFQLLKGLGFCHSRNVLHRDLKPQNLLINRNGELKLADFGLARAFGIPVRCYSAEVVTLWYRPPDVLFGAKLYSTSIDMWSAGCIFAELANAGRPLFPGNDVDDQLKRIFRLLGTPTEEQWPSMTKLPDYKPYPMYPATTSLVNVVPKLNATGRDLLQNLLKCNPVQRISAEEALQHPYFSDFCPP
T13 sequence (Q15078 whole entry partner): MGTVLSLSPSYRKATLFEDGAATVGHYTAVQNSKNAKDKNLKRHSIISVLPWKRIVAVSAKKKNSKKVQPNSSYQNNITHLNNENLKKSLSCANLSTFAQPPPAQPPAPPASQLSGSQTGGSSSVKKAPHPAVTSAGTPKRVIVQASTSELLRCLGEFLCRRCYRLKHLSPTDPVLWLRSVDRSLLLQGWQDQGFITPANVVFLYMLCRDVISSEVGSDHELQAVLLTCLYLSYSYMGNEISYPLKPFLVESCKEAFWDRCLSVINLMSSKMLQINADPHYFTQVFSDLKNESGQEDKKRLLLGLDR
Method: as §1

ALK = molecular target: T14, ALK (Homo sapiens, UniProt Q9UM73); conditions: read-out: % Enzyme Activity (Relative to DMSO Controls) ALK
T14 construct: purchased Reaction Biology Corp. (HotSpot kinase assay)
Method: as §1

Aurora A = molecular target: T15, Aurora A (Homo sapiens, UniProt O14965); conditions: read-out: % Enzyme Activity (Relative to DMSO Controls) Aurora A
T15 construct: purchased Reaction Biology Corp. (HotSpot kinase assay)
Method: as §1

CDK9/cyclin K = molecular target: T16, CDK9/cyclin K (Homo sapiens, UniProt P50750)
T16 construct: purchased Reaction Biology Corp
T16 sequence (P50750 whole entry): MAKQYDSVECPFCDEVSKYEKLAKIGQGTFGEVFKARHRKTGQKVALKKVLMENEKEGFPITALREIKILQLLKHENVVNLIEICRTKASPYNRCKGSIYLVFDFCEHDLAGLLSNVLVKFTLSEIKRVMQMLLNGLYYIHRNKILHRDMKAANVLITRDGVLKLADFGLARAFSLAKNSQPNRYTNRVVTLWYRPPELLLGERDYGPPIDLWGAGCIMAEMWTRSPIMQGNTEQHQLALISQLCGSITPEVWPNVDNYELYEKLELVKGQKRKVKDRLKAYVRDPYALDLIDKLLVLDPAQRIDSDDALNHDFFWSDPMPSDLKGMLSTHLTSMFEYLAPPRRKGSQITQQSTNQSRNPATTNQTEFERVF
T16 sequence (O75909 whole entry partner): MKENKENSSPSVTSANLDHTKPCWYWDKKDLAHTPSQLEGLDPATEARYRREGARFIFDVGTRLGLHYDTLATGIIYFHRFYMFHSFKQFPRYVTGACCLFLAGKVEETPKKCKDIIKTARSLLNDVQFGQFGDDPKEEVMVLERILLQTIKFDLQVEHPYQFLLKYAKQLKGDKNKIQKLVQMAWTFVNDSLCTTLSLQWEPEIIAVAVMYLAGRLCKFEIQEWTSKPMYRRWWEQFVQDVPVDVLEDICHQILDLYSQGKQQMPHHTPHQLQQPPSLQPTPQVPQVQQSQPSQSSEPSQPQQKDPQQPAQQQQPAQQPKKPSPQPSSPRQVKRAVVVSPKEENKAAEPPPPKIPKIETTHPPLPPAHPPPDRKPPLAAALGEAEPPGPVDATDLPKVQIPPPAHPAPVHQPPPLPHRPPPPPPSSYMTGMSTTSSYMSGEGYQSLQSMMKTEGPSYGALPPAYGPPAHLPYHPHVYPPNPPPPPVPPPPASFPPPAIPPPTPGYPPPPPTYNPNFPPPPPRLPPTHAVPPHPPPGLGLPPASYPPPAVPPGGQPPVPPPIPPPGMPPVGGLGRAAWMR
Method: as §1

## O=C(Nc1ccc(N2CCNCC2)cc1)c1n[nH]cc1Nc1ncnc2sc3c(c12)CCC3 [Compound 8t]
PDGFRa
  remaining activity at 0.15 µM: 82.8%
SYK
  remaining activity at 0.15 µM: 35.4%
c-Kit
  remaining activity at 0.15 µM: 64.8%
FLT3 (ITD)-NPOS; 0.15 μM, read-out: % Enzyme Activity (Relative to DMSO Controls) FLT3 (ITD)-NPOS
  remaining activity at 0.15 µM: 1.38%
FLT3 (ITD)-NPOS; Table 5 kinase profiling
  IC50: 4.32 ± 0.23 nM
FLT3; 0.15 μM, read-out: % Enzyme Activity (Relative to DMSO Controls) FLT3
  remaining activity at 0.15 µM: 0.01%
FLT3; Table 5 kinase profiling
  IC50: 0.035 ± 0.01 nM
FLT3 (R595_E596insEY); 0.15 μM, read-out: % Enzyme Activity (Relative to DMSO Controls) FLT3 (R595_E596insEY)
  remaining activity at 0.15 µM: 0.44%
FLT3 (R595_E596insEY); Table 5 kinase profiling
  IC50: 1.59 ± 0.14 nM
FLT3 (F594_R595insR); 0.15 μM, read-out: % Enzyme Activity (Relative to DMSO Controls) FLT3 (F594_R595insR)
  remaining activity at 0.15 µM: 0.47%
FLT3 (F594_R595insR); Table 5 kinase profiling
  IC50: 0.63 ± 0.09 nM
AKT1
  remaining activity at 0.15 µM: 122%
c-Src
  remaining activity at 0.15 µM: 73.8%
FLT3 (F594_R595insREY); 0.15 μM, read-out: % Enzyme Activity (Relative to DMSO Controls) FLT3 (F594_R595insREY)
  remaining activity at 0.15 µM: 0.8%
FLT3 (F594_R595insREY); Table 5 kinase profiling
  IC50: 1.38 ± 0.11 nM
FLT4/VEGFR3; 0.15 μM, read-out: % Enzyme Activity (Relative to DMSO Controls) FLT4/VEGFR3
  remaining activity at 0.15 µM: 3.62%
FLT4/VEGFR3; Table 5 kinase profiling
  IC50: 4.16 ± 0.19 nM
c-MET
  remaining activity at 0.15 µM: 99%
ALK1/ACVR1
  % Enzyme Activity (Relative to DMSO Controls) ALK1/ACVR1: 57.96%
FMS
  remaining activity at 0.15 µM: 63%
CDK5/p35; 0.15 μM, read-out: % Enzyme Activity (Relative to DMSO Controls) CDK5/p35
  remaining activity at 0.15 µM: 9.6%
CDK5/p35; Table 5 kinase profiling
  IC50: 9.64 ± 0.81 nM
ALK
  remaining activity at 0.15 µM: 16.6%
Aurora A
  remaining activity at 0.15 µM: 38%
CDK9/cyclin K; 0.15 μM, read-out: % Enzyme Activity (Relative to DMSO Controls) CDK9/cyclin K
  remaining activity at 0.15 µM: 7.2%
CDK9/cyclin K; Table 5 kinase profiling
  IC50: 14.2 ± 0.82 nM
